Measured values taken from patent US20210051954A1, “METHOD FOR INCREASING THE RESISTANCE OF A CEREAL PLANT” (BASF AGROCHEMICAL PRODUCTS B.V., priority 2018, published 2021).

What was measured:
[1] = test system: Wheat; assay: % germination in wheat by seed treatment, 21 days after planting; type: in vivo; conditions: 0.5 mg of (la)/plant, 30% FS formulation
Source text: (§1) Watering cycles—The level of stress is created by watering the pots based on the % of pot moisture as measured by wireless probes. Depending on weather conditions the number of cycles vary as needed.
(§2) The % of moisture triggers the watering process independent of the time that it takes to reach this point.
(§3) In “well-watered conditions” or “standard watered conditions”, in pots the % moisture is kept above 80%.
(§4) In “drought conditions”, in the pots re-watering happens at 45% pot moisture.
(§5) “Untreated” means that the seed has not been exposed to the compound I (a).
(§6) The treaments(s) were applied directly over the planted seed at the rates found in the table(s) below. Seeds were then covered and the % rate of germination was calculated at 21 days after planting.
(§7) The % rate of germination was calculated as the number of seeds that emerged divided by the number of seeds planted and presented as as a percentage.
(§8) Seeds were planted in two types of soil (Mineral and Organic) which were free of pest (insects, weeds, or diseases) to avoid interactions with the treatments applied
Example 2: Increase % Germination in Wheat by Seed Treatement

[2] = test system: Maize (Corn); assay: % germination in maize (corn) by drench treatment, 21 days after planting; type: in vivo; conditions: 30% FS formulation; for % Germination in Mineral soil in Standard conditions: standard watered conditions (moisture above 80%); for % Germination in Organic soil in Draught conditions: drought conditions (re-watering at 45% pot moisture)
Source text: as §1, §2, §3, §4, §5, §6, §7, §8
Example 1: Increase in % of Germination in Maize (Corn) by Drench Treatment

Which results are given for `CN(C(=O)c1ccccc1)c1cccc(C(=O)Nc2c(Br)cc(C(F)(C(F)(F)F)C(F)(F)F)cc2C(F)(F)F)c1F` [(la)]?
% Germination in Mineral soil in Standard conditions ([1]; mineral soil, standard watered conditions (moisture above 80%)): 95%; % Germination in Organic soil in Draught conditions ([1]; organic soil, drought conditions (re-watering at 45% pot moisture)): 95%; % Germination in Organic soil in Standard conditions ([1]; organic soil, standard watered conditions (moisture above 80%)): 100%; % Germination in Mineral soil in Standard conditions ([2]; 0.5 mg of (la)/plant): 100%; % Germination in Organic soil in Draught conditions ([2]; 0.5 mg of (la)/plant): 98%; % Germination in Mineral soil in Standard conditions ([2]; 1 mg of (la)/plant): 100%; % Germination in Organic soil in Draught conditions ([2]; 1 mg of (la)/plant): 100%
